# Experimental data from patent US8431593B2, “Heteroaryl amide derivatives” (H. Lundbeck A/S, priority 2006, dated 2013).
# Molecular target: T1, P2X7 receptor (Homo sapiens, UniProt Q99572)
# T1 construct: host or cells: SH-SY5Y
# T1 sequence (Q99572 1-595): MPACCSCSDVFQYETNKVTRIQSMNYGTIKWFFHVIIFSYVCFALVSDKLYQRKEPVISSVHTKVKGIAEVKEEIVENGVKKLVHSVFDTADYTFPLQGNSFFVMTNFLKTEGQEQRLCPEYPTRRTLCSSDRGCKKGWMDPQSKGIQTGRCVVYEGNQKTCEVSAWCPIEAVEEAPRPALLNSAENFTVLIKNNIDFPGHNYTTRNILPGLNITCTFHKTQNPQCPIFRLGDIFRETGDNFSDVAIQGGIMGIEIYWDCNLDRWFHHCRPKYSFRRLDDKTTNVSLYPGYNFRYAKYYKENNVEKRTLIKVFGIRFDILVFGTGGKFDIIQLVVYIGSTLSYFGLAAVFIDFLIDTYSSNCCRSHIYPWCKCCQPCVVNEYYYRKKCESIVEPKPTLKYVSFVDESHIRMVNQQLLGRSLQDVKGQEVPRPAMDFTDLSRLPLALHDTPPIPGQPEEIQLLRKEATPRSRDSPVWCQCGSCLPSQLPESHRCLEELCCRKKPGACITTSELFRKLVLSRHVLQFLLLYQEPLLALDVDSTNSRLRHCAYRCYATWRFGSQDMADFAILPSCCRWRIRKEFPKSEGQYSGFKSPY
# Assay: P2X7 calcium mobilization assay, high throughput, antagonist activity (Example 4A)
# Assay type: cell-based
# Conditions: 50% decrease in the fluorescence response of cells exposed to 80 μM of 2′(3′)-O-(4-benzoyl-benzoyl)adenosine 5′-triphosphate; determined as in Example 4A; read-out: IC50
# Procedure, shortened: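 Cells plated 100,000/well the day before; after 1 h dye loading and one rinse, cells were preincubated 1 h at room temperature with test compound. Calcium mobilization then read on FLIPR^TETRA; maximum RFU corrected by subtracting mean no-agonist response and referenced to mean agonist-control maximum.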
row,SMILES,IC50
1,"CCOC(=O)C(Cc1ccccc1Cl)c1cn2c(C(=O)NCC34CC5CC(CC(C5)C3)C4)cccc2n1 (stereo not shown) [Compound 840, ethyl 2-{5-[(adamantan-1-ylmethyl)carbamoyl]imidazo[1,2-a]pyridin-2-yl}-3-(2-chlorophenyl) propanoate]",< 2000 nM
2,"CCOC(=O)C(Cc1cccc(Cl)c1)c1cn2c(C(=O)NCC34CC5CC(CC(C5)C3)C4)cccc2n1 (stereo not shown) [Compound 841, ethyl 2-{5-[(adamantan-1-ylmethyl)carbamoyl]imidazo[1,2-a]pyridin-2-yl}-3-(3-chlorophenyl) propanoate]",< 2000 nM
3,"CCOC(=O)C(Cc1cccc(OC)c1)c1cn2c(C(=O)NCC34CC5CC(CC(C5)C3)C4)cccc2n1 (stereo not shown) [Compound 842, ethyl 2-{5-[(adamantan-1-ylmethyl)carbamoyl]imidazo[1,2-a]pyridin-2-yl}-3-(3-methoxyphenyl) propanoate]",< 2000 nM
4,"COc1cccc(CC(C(=O)O)c2cn3c(C(=O)NCC45CC6CC(CC(C6)C4)C5)cccc3n2)c1 (stereo not shown) [Compound 843, 2-{5-[(adamantan-1-ylmethyl)carbamoyl]imidazo[1,2-a]pyridin-2-yl}-3-(3-methoxyphenyl) propanoic acid]",< 2000 nM
5,"O=C(NCC12CC3CC(CC(C3)C1)C2)c1cccc2nc(C(Cc3ccccc3Cl)C(=O)O)cn12 (stereo not shown) [Compound 844, 2-{5-[(adamantan-1-ylmethyl)carbamoyl]imidazo[1,2-a]pyridin-2-yl}-3-(2-chlorophenyl) propanoic acid]",< 2000 nM
6,"O=C(NCC12CC3CC(CC(C3)C1)C2)c1cccc2nc(CC3(C(=O)O)CCOCC3)cn12 [Compound 847, 4-({5-[(adamantan-1-ylmethyl)carbamoyl]imidazo [1,2-a]pyridin-2-yl}methyl) tetrahydro-2H-pyran-4-carboxylic acid]",< 2000 nM
7,"O=C(NCC12CC3CC(CC(C3)C1)C2)c1cccc2nc(C(Cc3cccc(Cl)c3)C(=O)O)cn12 (stereo not shown) [Compound 848, 2-{5-[(adamantan-1-ylmethyl)carbamoyl]imidazo[1,2-a]pyridin-2-yl}-3-(3-chlorophenyl) propanoic acid]",< 2000 nM
8,"CCOC(=O)C1(c2cn3c(C(=O)NCC45CC6CC(CC(C6)C4)C5)cccc3n2)CCCCC1 [Compound 849, ethyl 1-{5-[(adamantan-1-ylmethyl)carbamoyl]imidazo[1,2-a]pyridin-2-yl} cyclohexane-carboxylate]",< 2000 nM
9,"O=C(NCC12CC3CC(CC(C3)C1)C2)c1cccc2nc(C3(C(=O)O)CCCC3)cn12 [Compound 850, 1-{5-[(adamantan-1-ylmethyl)carbamoyl]imidazo [1,2-a]pyridin-2-yl} cyclopentane-carboxylic acid]",< 2000 nM

# Other lines, results leading:
row,IC50,SMILES
1,< 2000 nM,"CC(C)CC(CNC(=O)c1cccc2nc(Cn3nccc3N)cn12)c1ccc(Cl)cc1 (stereo not shown) [Compound 836, 2-[(5-amino-1H-pyrazol-1-yl)methyl]-N-[2-(4-chlorophenyl)-4-methylpentyl] imidazo [1,2-a]pyridine-5-carboxamide]"
2,< 2000 nM,"O=C(Cc1cn2c(C(=O)NCC34CC5CC(CC(C5)C3)C4)cccc2n1)N[C@@H]1CCNC1 [Compound 837, N-(adamantan-1-ylmethyl)-2-{2-oxo-2-[(3R)-pyrrolidin-3-ylamino]ethyl} imidazo [1,2-a]pyridine-5-carboxamide]"
3,< 2000 nM,"O=C(Cc1cn2c(C(=O)NCC34CC5CC(CC(C5)C3)C4)cccc2n1)N[C@@H]1CCCNC1 [Compound 838, N-(adamantan-1-ylmethyl)-2-{2-oxo-2-[(3R)-piperidin-3-ylamino]ethyl} imidazo[1,2-a] pyridine-5-carboxamide]"
4,< 2000 nM,"CC(C)CC(CNC(=O)c1cccc2nc(CC(=O)N3CCC[C@@H](N)C3)cn12)c1ccc(Cl)cc1 (stereo partly drawn) [Compound 839, 2-{2-[(3R)-3-aminopiperidin-1-yl]-2-oxoethyl}-N-[2-(4-chlorophenyl)-4-methylpentyl] imidazo[1,2-a] pyridine-5-carboxamide]"
